Assay results as given in patent US9980976B2, “Use of REDD1 inhibitors to dissociate therapeutic and adverse atrophogenic effects of glucocorticoid receptor agonists” (Northwestern University, priority 2015, dated 2018).

Assays:
human skin = experiment: Skin atrophy in human volunteers treated with topical glucocorticoid; format: in vivo; conditions: 0.05% cream daily, 2-week treatment
Description: (§1) Glucocorticoid CBP was applied topically as a 0.05% cream to the skin of right arm of healthy human volunteers (age 32-65) once or every 24 h for 2 weeks. Untreated left arm skin was used as control. Whole human skin samples were used for the molecular biological studies.
(§2) Quantification of the epidermal width and number of basal keratinocytes (as the readouts for skin atrophy and hypoplasia of raft epidermis) was performed in dorsal skin and ORC sections stained with H&E. The number of dermal cells was determined on sections stained with Masson's trichrome in the upper (papillary) dermis that is distinguishable from the lower (reticular) dermis (Driskell et al, 2013). At least 10 individual fields per slide with at least three samples in each experimental group were counted using Axioplan2 microscope software (Carl Zeiss). All measurements are presented as % to corresponding control.

REDD1 [1] = experiment: REDD1 mRNA expression in human skin (RT-PCR); format: in vivo; conditions: human skin treated with CBP 0.05% cream for 24 h-2 weeks
Description: as §1
Total RNA from murine epidermis, whole human skin, and cell cultures was isolated with RiboPure kit (Ambion, Life Technologies, Grand Island, N.Y., USA). Total RNA from murine s.c. adipose was isolated with RNeasy Lipid Tissue Kit (Qiagen, Valencia, Calif., USA). The RNA samples were treated with TURBOT™ DNase (Ambion). The gene expression was assessed using semi-quantitative two-step RT-PCR and quantitative Q-PCR. Reverse transcription was performed using 1 μg RNA, random hexamers, and M-MLV reverse transcriptase (Invitrogen, Life Technologies), according to manufacturer instructions. The gene-specific primers were designed with NCBI Primer-BLAST (data not shown, see Baida et al., EMBO, 2015, at Supplementary Table S4). Q-PCR with SYBR Green detection was performed on the Applied Biosystems® 7000 Real-Time PCR instrument (Life Technologies). […] For semi-quantitative PCRs, Taq DNA polymerase (Promega) was used, and PCR products were separated on 1.5% agarose gel and visualized using automated imaging system (Bio-Rad, Hercules, Calif., USA). […]

REDD1 [2] = experiment: REDD1 expression in organotypic raft cultures (Q-PCR, Western blot); format: cell-based, human; conditions: control pGIPZ ORCs, short-term (6 h) and chronic (7 days) CBP
Description: (§3) Three-dimensional (3-D) organotypic raft cultures (ORC) of human epidermis were made as described in Getsios et al (2009). Briefly, neonatal human epidermal keratinocytes (NHEK) were infected with shRNA- and pGIPZ-expressing lentiviruses followed, 48 h later, by selection for puromycin (2 μg/ml) resistance. Selected keratinocyte cultures were reseeded onto collagen gels with embedded J2-3T3 fibroblasts and cultured at the air-liquid interface as previously described for 3 days to allow the initial phase of epidermis formation. The standard ORC medium contains high 5×10^−7 M hydrocortisone. In our experiments, ORC were cultured in the medium with 10^−8 M hydrocortisone during first 3 days and then were treated with glucocorticoid CBP (5×10^−6 M) or vehicle control (0.05% DMSO) for 7 days. Rafts were treated with BrdU (10^−7 M) 1 h before harvesting and fixed in formalin. […]
Total RNA from murine epidermis, whole human skin, and cell cultures was isolated with RiboPure kit (Ambion, Life Technologies, Grand Island, N.Y., USA). […] The gene expression was assessed using semi-quantitative two-step RT-PCR and quantitative Q-PCR. […] For semi-quantitative PCRs, Taq DNA polymerase (Promega) was used, and PCR products were separated on 1.5% agarose gel and visualized using automated imaging system (Bio-Rad, Hercules, Calif., USA). […]

[3] = tested on: organotypic raft cultures of primary human epidermal keratinocytes (NHEK); experiment: Hypoplasia/proliferation in 3-D organotypic raft cultures (ORC) of NHEK; format: cell-based; conditions: pGIPZ-infected ORCs, 7-day treatment with CBP 5 μM
Description: as §3, with “hydrocortisone.” for “hydrocortisone. In our experiments, ORC were cultured in the medium with 10^−8 M hydrocortisone during first 3 days and then were treated with glucocorticoid CBP (5×10^−6 M) or vehicle control (0.05% DMSO) for 7 days. Rafts were treated with BrdU (10^−7 M) 1 h before harvesting and fixed in formalin.”
as §2, with “All measurements are presented as % to corresponding control.” left out
The numbers of BrdU+, p63+, and total number of basal keratinocytes were evaluated in 10 fields of view in each skin/ORC sample under the microscope. […]

GR = conditions: Schäcke et al, 2009; cited from earlier work

SMILES | negative effect on basal keratinocytes (compared with FA-treated mice) (human skin) | REDD1 mRNA (REDD1 [1]) | REDD1 mRNA and protein (REDD1 [2]) | decrease in number and proliferation (BrdU incorporation) of basal keratinocytes [3] | anti-inflammatory effect (GR) | skin atrophy (GR)
CCC(=O)O[C@]1(C(=O)CCl)[C@@H](C)C[C@H]2[C@@H]3CCC4=CC(=O)C=C[C@]4(C)[C@@]3(F)[C@@H](O)C[C@@]21C [CBP, clobetasol propionate] | less pronounced | strongly up-regulated | induced REDD1 mRNA and protein | 25-40% |  | 
Cc1ccc2c(NC[C@](O)(CC(C)(C)c3cc(F)cc4c3OCC4)C(F)(F)F)cccc2n1 [ZK245186/mapracorat] |  |  |  |  | preserve the anti-inflammatory effect of glucocorticoids | do not induce skin atrophy
